Results: ChEMBL document CHEMBL2157968, “Novel multipotent phenylthiazole-tacrine hybrids for the inhibition of cholinesterase activity, β-amyloid aggregation and Ca²⁺ overload” (Bioorg Med Chem, 2012)
pIC50: −log10 of the molar value. Calls of active or inactive are those of the source. The rule behind the calls is not given here.

Key:
Cholinesterase = Cholinesterase (Equus caballus, UniProt P81908)
Description: Inhibition of equine serum BuChE using butyrylthiocholine chloride substrate incubated for 5 mins before substrate addition measured at 3 min interval by Ellman method

Acetylcholinesterase = Acetylcholinesterase (Electrophorus electricus, UniProt O42275)
Description: Inhibition of electric eel AChE using acetylthiocholine chloride substrate incubated for 5 mins before substrate addition measured at 3 min interval by Ellman method

[1] = biological target: Acetylcholinesterase (Electrophorus electricus) (UniProt O42275); experiment: Mixed type inhibition of electric eel AChE using acetylthiocholine chloride substrate incubated for 5 mins before substrate addition measured at 3 min interval by Lineweaver-Burk plot analysis
Acetylcholinesterase (Electrophorus electricus), sequence (O42275 24-633 limits assumed): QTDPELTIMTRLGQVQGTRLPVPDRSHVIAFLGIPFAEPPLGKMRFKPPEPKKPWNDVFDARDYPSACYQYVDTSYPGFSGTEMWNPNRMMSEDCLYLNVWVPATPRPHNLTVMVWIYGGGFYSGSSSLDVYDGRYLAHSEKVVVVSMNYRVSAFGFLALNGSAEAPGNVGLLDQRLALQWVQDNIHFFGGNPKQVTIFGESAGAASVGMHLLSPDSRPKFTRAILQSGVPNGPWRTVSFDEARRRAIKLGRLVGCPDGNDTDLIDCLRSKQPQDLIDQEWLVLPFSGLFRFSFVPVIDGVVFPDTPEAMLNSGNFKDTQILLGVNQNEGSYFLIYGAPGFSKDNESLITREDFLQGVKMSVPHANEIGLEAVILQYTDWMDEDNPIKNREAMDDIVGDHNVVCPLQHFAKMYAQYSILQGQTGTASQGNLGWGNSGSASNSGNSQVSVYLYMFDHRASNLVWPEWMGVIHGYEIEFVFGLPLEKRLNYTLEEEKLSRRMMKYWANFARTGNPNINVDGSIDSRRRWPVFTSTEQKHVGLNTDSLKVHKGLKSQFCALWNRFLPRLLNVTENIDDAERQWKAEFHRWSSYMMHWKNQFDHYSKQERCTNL

Cerebral cortex neuron = experiment: Inhibition of KCl-induced Ca2+ overload in Sprague-Dawley rat primary cortical neurons assessed as reduction in F340/F380 fluorescence ratio at 1 uM by Fura-2/AM-based fluorescence assay; assay type: functional, cell-based

Cholinesterase, sequence (P81908 whole entry): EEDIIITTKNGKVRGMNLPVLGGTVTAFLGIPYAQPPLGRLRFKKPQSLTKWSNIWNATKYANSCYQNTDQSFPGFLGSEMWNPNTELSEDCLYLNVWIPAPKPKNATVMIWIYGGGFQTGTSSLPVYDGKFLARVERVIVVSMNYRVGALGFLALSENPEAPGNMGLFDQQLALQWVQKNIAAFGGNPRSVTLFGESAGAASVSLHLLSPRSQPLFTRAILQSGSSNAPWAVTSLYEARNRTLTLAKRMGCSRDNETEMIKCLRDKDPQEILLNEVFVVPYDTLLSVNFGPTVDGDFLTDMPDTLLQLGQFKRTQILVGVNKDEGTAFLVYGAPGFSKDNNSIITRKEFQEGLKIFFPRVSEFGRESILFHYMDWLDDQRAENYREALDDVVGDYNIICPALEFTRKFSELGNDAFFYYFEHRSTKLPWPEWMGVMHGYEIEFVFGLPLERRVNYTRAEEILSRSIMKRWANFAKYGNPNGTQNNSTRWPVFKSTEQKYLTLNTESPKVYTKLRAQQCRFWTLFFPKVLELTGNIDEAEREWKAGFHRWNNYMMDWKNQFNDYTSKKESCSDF
Acetylcholinesterase, sequence (O42275 whole entry): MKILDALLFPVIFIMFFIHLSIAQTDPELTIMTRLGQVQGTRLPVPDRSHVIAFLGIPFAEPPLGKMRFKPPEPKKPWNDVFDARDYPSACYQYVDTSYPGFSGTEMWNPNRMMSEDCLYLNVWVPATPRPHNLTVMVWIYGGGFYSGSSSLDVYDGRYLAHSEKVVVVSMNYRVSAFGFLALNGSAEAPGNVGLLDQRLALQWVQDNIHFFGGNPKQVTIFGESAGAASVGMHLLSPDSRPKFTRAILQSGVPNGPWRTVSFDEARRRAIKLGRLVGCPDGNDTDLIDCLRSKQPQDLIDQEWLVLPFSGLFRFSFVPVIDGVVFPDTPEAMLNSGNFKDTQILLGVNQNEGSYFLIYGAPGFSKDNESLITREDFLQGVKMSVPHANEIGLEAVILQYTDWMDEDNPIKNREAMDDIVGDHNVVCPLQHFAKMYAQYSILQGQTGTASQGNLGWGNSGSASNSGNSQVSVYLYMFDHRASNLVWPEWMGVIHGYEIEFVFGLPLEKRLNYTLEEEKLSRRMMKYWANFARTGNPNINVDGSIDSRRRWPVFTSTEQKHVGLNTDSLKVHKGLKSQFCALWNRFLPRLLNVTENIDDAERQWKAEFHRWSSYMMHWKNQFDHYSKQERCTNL

Structure (SMILES)	pIC50 (Cholinesterase)	pIC50 (Acetylcholinesterase)	inhibition [1]	inhibition (Cerebral cortex neuron)
CCN(CCCNc1c2c(nc3ccccc13)CCCC2)CCC(=O)Nc1nc(-c2ccccc2)cs1	8.22	6.49	–	–
CCN(CCCCNc1c2c(nc3ccccc13)CCCC2)CC(=O)Nc1nc(-c2ccc(Cl)cc2)cs1	7.11	5.79	–	–
CCN(CCCCNc1c2c(nc3ccccc13)CCCC2)CCC(=O)Nc1nc(-c2ccc(Cl)cc2)cs1	7.34	6.92	–	–
CCN(CCCCNc1c2c(nc3ccccc13)CCCC2)CCC(=O)Nc1nc(-c2ccc(OC)cc2)cs1	8.18	6.54	–	–
O=C(CCC(=O)Nc1nc(-c2ccccc2)cs1)NCCCCNc1c2c(nc3ccccc13)CCCC2	9.22	6.31	–	–
O=C(CCC(=O)Nc1nc2c(s1)CCCC2)NCCCCNc1c2c(nc3ccccc13)CCCC2	6.44	5.90	–	–
O=C(CCCC(=O)Nc1nc(-c2ccccc2)cs1)NCCCNc1c2c(nc3ccccc13)CCCC2	5.75	6.42	–	–
O=C(CCCC(=O)Nc1nc(-c2ccccc2)cs1)NCCCCNc1c2c(nc3ccccc13)CCCC2	9.26	6.55	–	–
CCN(CCCNc1c2c(nc3ccccc13)CCCC2)CCC(=O)Nc1nc(-c2ccc(Cl)cc2)cs1	8.38	5.92	–	–
CCN(CCCNc1c2c(nc3ccccc13)CCCC2)CC(=O)Nc1nc(-c2ccccc2)cs1	10.35	6.98	–	–
CCN(CCCCNc1c2c(nc3ccccc13)CCCC2)CCC(=O)Nc1nc(-c2ccccc2)cs1	7.74	6.96	–	–
CCN(CCCCCCNc1c2c(nc3ccccc13)CCCC2)CC(=O)Nc1nc(-c2ccccc2)cs1	6.33	7.09	–	–
O=C(CCC(=O)Nc1nc(-c2ccccc2)cs1)NCCCCCCNc1c2c(nc3ccccc13)CCCC2	9.45	7.14	Active	–
CCN(CCCCNc1c2c(nc3ccccc13)CCCC2)CC(=O)Nc1nc(-c2ccccc2)cs1	7.83	6.80	–	–
CCN(CCCCNc1c2c(nc3ccccc13)CCCC2)CC(=O)Nc1nc(-c2ccc(OC)cc2)cs1	7.69	5.78	–	–
CCN(CCCNc1c2c(nc3ccccc13)CCCC2)CC(=O)Nc1nc(-c2ccc(OC)cc2)cs1	6.56	5.86	–	–
CCN(CCCNc1c2c(nc3ccccc13)CCCC2)CCC(=O)Nc1nc(-c2ccc(OC)cc2)cs1	9.32	7.01	–	–
CCN(CCCCCCNc1c2c(nc3ccccc13)CCCC2)CC(=O)Nc1nc(-c2ccc(OC)cc2)cs1	6.23	6.80	–	inactive
O=C(CCC(=O)Nc1nc(-c2ccc(Cl)cc2)cs1)NCCCCNc1c2c(nc3ccccc13)CCCC2	7.78	5.87	–	–
